Each structure is given as a SMILES string. Where “and” joins values, the source holds several entries; their conditions need not be identical. Equal values may be shown once.

Holding throughout (assay): biochemical
Common to all, as to parameters: endogenous in cells; host or cells: K562 cell extract; species or system K562 (extract); replicate k of n = 2 (each experiment ID is one independent experiment; two experiment IDs per compound)
Conditions in all cases: read-out: KDapp

The target of experiment [1] is SRC (Homo sapiens, UniProt P12931).
The target in experiment [2] is T1, ADCK1 (Homo sapiens, UniProt Q86TW2).
T1 sequence (Q86TW2 1-530): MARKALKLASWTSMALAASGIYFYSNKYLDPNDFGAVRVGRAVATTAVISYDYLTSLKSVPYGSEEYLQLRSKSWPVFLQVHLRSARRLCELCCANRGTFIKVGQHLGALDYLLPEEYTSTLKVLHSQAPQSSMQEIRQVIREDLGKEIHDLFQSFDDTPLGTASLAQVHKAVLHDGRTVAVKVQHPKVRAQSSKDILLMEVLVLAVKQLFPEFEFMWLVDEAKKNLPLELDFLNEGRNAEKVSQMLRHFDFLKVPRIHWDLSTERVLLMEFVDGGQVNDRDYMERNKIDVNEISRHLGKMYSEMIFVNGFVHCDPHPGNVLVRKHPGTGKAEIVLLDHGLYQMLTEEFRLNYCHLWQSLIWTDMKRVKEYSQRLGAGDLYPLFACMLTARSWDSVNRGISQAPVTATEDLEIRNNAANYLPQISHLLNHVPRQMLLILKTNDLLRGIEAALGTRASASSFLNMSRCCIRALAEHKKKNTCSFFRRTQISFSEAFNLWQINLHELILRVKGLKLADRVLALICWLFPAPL

The target in experiment [3] is DYRK1A (Homo sapiens, UniProt Q13627).
The target in experiment [4] is MELK (Homo sapiens, UniProt Q14680).
Experiment [5] deals with EIF2AK4 (Homo sapiens, UniProt Q9P2K8).
Experiment [6] deals with CLK1 (Homo sapiens, UniProt P49759).
Experiment [7] concerns the target PTK2 (Homo sapiens, UniProt Q05397).
In experiment [8] the target is T2, PIP4K2A (Homo sapiens, UniProt P48426).
T2 sequence (P48426 1-406): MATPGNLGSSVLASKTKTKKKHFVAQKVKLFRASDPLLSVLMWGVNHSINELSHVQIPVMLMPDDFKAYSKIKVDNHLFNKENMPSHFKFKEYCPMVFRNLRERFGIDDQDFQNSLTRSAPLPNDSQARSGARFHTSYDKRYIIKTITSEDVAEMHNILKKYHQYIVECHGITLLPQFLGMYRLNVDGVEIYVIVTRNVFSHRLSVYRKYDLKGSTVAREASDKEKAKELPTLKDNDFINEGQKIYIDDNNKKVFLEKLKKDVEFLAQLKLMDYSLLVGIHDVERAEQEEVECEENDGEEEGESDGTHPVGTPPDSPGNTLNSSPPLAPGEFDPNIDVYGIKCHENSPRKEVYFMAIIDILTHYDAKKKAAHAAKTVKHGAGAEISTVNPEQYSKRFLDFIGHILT

The target of experiment [9] is MAP3K4 (Homo sapiens, UniProt Q9Y6R4).
The target in experiment [10] is PRKAA1 (Homo sapiens, UniProt Q13131).
PRKAA1, sequence (Q13131 whole entry): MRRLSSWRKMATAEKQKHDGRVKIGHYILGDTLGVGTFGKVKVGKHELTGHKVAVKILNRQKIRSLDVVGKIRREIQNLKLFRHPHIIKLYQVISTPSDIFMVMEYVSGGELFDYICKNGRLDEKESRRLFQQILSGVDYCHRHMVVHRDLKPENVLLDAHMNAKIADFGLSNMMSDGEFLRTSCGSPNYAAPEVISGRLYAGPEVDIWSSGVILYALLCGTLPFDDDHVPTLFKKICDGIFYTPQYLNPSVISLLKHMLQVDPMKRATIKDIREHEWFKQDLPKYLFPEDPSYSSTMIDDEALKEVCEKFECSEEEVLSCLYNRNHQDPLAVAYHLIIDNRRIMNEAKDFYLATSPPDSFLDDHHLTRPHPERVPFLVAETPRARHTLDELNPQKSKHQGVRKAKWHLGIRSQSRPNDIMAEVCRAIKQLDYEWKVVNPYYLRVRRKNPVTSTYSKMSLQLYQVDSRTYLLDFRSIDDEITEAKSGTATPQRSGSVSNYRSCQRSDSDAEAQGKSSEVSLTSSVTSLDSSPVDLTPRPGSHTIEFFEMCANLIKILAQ

SRC, sequence (P12931 whole entry): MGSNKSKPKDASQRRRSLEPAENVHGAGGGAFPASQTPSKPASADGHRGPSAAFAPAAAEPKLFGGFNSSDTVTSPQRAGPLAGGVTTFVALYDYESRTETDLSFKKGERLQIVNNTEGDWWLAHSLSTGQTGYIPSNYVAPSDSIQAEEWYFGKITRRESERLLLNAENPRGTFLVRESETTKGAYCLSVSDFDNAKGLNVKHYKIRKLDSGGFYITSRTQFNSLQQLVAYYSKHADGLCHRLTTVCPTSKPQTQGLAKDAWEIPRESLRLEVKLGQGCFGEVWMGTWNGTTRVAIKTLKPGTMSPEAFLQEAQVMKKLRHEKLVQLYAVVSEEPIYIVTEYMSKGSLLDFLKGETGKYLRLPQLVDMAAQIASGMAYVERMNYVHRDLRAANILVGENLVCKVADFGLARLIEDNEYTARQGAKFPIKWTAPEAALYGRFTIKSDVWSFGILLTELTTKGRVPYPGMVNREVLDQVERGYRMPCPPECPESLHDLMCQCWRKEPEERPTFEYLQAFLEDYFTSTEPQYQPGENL
MELK, sequence (Q14680 whole entry): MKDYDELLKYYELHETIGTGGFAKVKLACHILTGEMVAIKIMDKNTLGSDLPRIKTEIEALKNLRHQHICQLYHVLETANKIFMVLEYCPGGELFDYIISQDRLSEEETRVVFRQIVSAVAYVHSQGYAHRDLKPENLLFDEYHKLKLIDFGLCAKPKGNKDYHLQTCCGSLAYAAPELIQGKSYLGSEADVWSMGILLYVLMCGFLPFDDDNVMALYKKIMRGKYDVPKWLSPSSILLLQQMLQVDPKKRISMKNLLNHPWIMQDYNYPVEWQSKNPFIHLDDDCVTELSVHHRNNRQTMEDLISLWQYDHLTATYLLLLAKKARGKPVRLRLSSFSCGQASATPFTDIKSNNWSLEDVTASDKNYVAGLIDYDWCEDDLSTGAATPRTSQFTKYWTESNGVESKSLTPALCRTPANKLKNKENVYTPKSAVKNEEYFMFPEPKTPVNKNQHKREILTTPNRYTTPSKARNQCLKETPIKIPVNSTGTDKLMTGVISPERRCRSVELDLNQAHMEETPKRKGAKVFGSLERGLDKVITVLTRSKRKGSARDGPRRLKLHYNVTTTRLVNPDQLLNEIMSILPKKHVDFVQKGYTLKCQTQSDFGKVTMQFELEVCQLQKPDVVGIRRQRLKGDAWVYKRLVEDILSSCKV
MAP3K4, sequence (Q9Y6R4 whole entry): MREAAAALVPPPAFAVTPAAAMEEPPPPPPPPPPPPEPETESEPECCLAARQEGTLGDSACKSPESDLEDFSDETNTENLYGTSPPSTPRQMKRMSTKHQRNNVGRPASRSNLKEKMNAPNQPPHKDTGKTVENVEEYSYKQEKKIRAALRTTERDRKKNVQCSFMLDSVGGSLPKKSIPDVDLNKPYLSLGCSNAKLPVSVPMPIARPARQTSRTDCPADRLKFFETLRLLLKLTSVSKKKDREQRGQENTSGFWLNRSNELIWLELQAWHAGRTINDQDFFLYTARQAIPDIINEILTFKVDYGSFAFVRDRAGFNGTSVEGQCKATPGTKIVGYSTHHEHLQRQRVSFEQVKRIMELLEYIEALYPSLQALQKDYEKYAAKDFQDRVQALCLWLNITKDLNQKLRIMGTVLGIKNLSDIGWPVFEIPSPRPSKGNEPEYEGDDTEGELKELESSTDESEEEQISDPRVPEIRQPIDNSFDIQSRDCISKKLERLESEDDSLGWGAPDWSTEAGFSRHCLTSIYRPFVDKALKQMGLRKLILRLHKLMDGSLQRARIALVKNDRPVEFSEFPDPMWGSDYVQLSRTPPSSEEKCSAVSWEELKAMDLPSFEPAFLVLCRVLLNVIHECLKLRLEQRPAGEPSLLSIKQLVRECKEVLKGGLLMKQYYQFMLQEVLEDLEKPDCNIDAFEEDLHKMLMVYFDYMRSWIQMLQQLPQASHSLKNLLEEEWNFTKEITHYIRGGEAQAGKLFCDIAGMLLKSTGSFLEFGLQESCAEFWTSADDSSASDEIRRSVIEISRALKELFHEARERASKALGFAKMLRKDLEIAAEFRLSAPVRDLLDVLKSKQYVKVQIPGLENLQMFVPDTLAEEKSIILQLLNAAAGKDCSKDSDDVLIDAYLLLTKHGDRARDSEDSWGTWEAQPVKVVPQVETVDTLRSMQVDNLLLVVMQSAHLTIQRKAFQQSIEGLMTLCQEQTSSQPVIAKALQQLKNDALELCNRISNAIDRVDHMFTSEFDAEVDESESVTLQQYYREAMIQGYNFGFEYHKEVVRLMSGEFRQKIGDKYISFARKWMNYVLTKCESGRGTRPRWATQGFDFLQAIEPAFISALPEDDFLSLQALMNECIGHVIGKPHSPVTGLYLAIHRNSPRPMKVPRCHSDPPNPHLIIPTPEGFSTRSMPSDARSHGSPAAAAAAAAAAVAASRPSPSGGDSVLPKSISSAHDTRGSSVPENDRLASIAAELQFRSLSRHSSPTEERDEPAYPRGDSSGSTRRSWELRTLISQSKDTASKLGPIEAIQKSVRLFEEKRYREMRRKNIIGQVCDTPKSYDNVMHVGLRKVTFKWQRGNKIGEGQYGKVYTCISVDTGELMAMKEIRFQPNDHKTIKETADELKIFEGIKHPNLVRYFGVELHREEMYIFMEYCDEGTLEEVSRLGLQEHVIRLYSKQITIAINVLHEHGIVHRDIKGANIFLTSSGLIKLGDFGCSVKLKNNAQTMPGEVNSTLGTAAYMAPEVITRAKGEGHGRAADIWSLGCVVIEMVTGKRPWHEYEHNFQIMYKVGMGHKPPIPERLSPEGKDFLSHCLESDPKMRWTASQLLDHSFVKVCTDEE
EIF2AK4, sequence (Q9P2K8 whole entry): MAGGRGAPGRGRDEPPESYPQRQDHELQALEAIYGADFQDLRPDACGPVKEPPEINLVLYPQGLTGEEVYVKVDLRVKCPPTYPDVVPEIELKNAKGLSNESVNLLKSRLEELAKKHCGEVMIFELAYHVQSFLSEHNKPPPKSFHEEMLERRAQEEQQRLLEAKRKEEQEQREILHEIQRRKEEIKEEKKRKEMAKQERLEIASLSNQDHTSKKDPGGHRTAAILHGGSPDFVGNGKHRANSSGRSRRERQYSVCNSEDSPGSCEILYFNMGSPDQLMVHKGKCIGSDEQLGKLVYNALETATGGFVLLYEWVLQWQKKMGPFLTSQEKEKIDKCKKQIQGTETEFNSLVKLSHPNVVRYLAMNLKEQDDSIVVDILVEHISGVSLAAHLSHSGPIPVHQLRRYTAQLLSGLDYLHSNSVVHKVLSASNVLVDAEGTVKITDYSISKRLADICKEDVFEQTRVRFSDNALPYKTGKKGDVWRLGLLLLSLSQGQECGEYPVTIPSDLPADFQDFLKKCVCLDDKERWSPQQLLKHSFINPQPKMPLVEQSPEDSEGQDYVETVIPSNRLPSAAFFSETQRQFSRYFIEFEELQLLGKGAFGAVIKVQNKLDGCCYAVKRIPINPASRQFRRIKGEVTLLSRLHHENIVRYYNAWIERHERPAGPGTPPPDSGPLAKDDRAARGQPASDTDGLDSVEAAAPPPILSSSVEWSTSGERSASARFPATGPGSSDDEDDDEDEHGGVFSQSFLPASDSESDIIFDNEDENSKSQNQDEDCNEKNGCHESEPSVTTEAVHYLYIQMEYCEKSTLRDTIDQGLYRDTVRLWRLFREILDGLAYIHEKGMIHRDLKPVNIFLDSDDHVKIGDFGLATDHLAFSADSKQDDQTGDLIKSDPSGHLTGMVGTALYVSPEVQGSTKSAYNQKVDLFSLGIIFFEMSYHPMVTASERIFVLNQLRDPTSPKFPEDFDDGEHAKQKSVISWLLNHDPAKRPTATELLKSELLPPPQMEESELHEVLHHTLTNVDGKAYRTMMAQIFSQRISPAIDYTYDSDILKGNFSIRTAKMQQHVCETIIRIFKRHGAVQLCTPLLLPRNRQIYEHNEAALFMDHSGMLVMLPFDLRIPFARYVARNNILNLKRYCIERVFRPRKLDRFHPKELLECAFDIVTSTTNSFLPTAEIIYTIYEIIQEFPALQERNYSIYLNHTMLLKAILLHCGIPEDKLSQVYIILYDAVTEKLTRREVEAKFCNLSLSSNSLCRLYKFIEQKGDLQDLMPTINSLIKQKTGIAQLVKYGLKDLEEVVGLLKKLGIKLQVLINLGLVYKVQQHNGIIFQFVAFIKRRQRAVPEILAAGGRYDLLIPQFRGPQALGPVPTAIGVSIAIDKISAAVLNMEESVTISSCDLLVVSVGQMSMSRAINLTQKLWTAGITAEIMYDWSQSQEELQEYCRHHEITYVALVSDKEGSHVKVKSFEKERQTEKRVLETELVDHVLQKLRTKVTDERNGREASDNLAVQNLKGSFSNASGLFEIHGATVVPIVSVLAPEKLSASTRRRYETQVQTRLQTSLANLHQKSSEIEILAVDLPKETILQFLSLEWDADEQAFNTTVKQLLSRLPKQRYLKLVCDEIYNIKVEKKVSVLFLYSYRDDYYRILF

Turning to `CN1CCN(c2ccc(Nc3ncc(C#N)c(Nc4ccccc4C(N)=O)n3)cc2)CC1.Cl` [TCMDC-134116], the Kd in experiment [1] was 184 nM and 157 nM; in experiment [2], 654 nM; in experiment [3] it was 286 nM and 263 nM; in experiment [4], 129 nM and 125 nM; in experiment [5], 168 nM and 147 nM; in experiment [6], 20.7 nM and 21.1 nM. Moreover, the Kd is 13.2 nM and 17.4 nM in experiment [7]; 775 nM and 987 nM in [8]; 19.8 nM and 25.8 nM in experiment [9]; 14.1 nM and 18.2 nM in experiment [10].

For the compound `Cl.NCC1(c2nc(-c3ccc(Cl)c(O)c3)c(-c3ccncc3)[nH]2)CCCCC1` [TCMDC-141154], the Kd is 111 nM in experiment [1]; 1680 nM and 1610 nM in experiment [4].

Take `CN(C)CC(O)COc1ccc(Nc2ncc([N+](=O)[O-])c(Nc3ccccc3O)n2)cc1.O=C(O)C(F)(F)F` (centres unmarked) [TCMDC-141399]: the Kd in [2] was 1180 nM; in experiment [3], 2860 nM; in experiment [5] it was 182 nM and 245 nM; in [6], 171 nM and 119 nM; in experiment [7] it was 26.9 nM and 29 nM; in [8] it was 846 nM and 669 nM. Further, the Kd is 426 nM in experiment [9]; 2630 nM and 2850 nM in [10].

For the origin of these results see PMC4774911, “Biochemical Screening of Five Protein Kinases from Plasmodium falciparum against 14,000 Cell-Active Compounds” (PLoS ONE, 2016).
